The structures appear in SMILES notation.

As usually defined, the IC50 is the concentration that gives 50% inhibition.

This assay is described as follows: Inhibition of N-terminal tetra-cysteine tagged LexA repressor (unknown origin) assessed as reduction in RecA-mediated autoproteolysis by measuring release of fluorophore-labeled peptide using FlAsH-EDT2 as fluorescent substrate by FlAsH-LexA assay. Details: species or system Bacteria.
For `Cc1ccc(NC(=O)Cn2nnc(C(=O)Nc3ccccc3)c2N)cc1`, the IC50 was found to be 107 µM.

Turning to `Nc1c(C(=O)Nc2ccccc2)nnn1CC(=O)Nc1ccc(Cl)cc1`, the 50% inhibitory concentration (IC50) is greater than 250 µM.

Regarding `Nc1ccc(NC(=O)Cn2nnc(C(=O)Nc3ccccc3)c2N)cc1`, the IC50 was greater than 250 µM.

For the compound `Nc1c(C(=O)Nc2ccccc2)nnn1CC(=O)NC1CCCCCC1`, the IC50 is greater than 250 µM.

With `CCOc1ccc(NC(=O)Cn2nnc(C(=O)Nc3ccccc3)c2N)cc1`, the IC50 turned out to be 48 µM.

For `Cc1ccc(/N=C2\NC(=O)C(N)=C2C(=O)Nc2ccccc2)cc1`, the IC50 is greater than 250 µM.

On to `COC(=O)c1ccc(NC(=O)Cn2nnc(C(=O)Nc3ccccc3)c2N)cc1`, for which the IC50 is 75 µM.

For `Nc1c(C(=O)Nc2ccccc2)nnn1CC(=O)Nc1c(Cl)cc(Cl)cc1Cl`, the concentration for half-maximal inhibition (IC50) is greater than 250 µM.

Consider `Nc1c(C(=O)Nc2ccccc2)nnn1CC(=O)Nc1ccc(O)cc1`, for which the IC50 was greater than 250 µM.

Take `Nc1c(C(=O)Nc2ccccc2)nnn1CC(=O)Nc1ccc(C(=O)C(F)(F)F)cc1`: the IC50 is greater than 250 µM.

`Cc1ccc(NC(=O)Cn2nnc(C(=O)Nc3ccccc3)c2N)c(C)c1`: the IC50 was greater than 250 µM.

Take `Cc1ccccc1NC(=O)Cn1nnc(C(=O)Nc2ccccc2)c1N`: the IC50 is greater than 250 µM.
